Measured values from PubChem BioAssay (NCI).
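Growth conditions: 96-well plates. Treatment: test compound, 48 hours, 5 concentrations. Analysis: linear interpolation between bracketing concentrations; unreached endpoints set to highest concentration. GI50 = concentration required for 50% inhibition of growth. TGI denotes the concentration required for complete inhibition of growth.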

What was measured:
Experiment in all cases: NCI-60 cell line screen, 48 h
NCI-H226 lung = system: NCI-H226 lung
MALME-3M melanoma = system: MALME-3M melanoma
OVCAR-8 ovarian = system: OVCAR-8 ovarian
OVCAR-4 ovarian = system: OVCAR-4 ovarian
BT-549 breast = system: BT-549 breast
HL-60(TB) leukemia = system: HL-60(TB) leukemia
SF-539 CNS = system: SF-539 CNS
SN12C renal = system: SN12C renal
SNB-75 CNS = system: SNB-75 CNS
HS 578T breast = system: HS 578T breast
786-0 renal = system: 786-0 renal
M14 melanoma = system: M14 melanoma
DU-145 prostate = system: DU-145 prostate
SW-620 colon = system: SW-620 colon
UACC-257 melanoma = system: UACC-257 melanoma
SF-295 CNS = system: SF-295 CNS
MOLT-4 leukemia = system: MOLT-4 leukemia
LOX IMVI melanoma = system: LOX IMVI melanoma
U251 CNS = system: U251 CNS
A549 NSCLC = system: A549 NSCLC
SF-268 CNS = system: SF-268 CNS
NCI-H522 lung = system: NCI-H522 lung
CCRF-CEM leukemia = system: CCRF-CEM leukemia
HOP-62 NSCLC = system: HOP-62 NSCLC
HCT-15 colon = system: HCT-15 colon
HOP-92 NSCLC = system: HOP-92 NSCLC
NCI-H460 lung = system: NCI-H460 lung
UO-31 renal = system: UO-31 renal
SR leukemia = system: SR leukemia

Compound `Cc1ncc(NC(=O)c2ccc(CN3CCN(C)CC3)c(C(F)(F)F)c2)cc1Nc1nccc(-c2cccnc2)n1` has a TGI (NCI-H226 lung) of 39.7 µM, a GI50 (MALME-3M melanoma) of 0.582 µM and a TGI (MALME-3M melanoma) of 14.4 µM. The GI50 (OVCAR-8 ovarian) was 16.8 µM, the TGI (OVCAR-8 ovarian) was 31.6 µM and the GI50 (OVCAR-4 ovarian) was 15.5 µM. For the same compound, the TGI (OVCAR-4 ovarian) was 29.4 µM, the GI50 (BT-549 breast) was 18.1 µM and the TGI (BT-549 breast) was 32.7 µM. It also gave a GI50 (HL-60(TB) leukemia) of 8.57 µM, a TGI (HL-60(TB) leukemia) of 32.3 µM and a GI50 (SF-539 CNS) of 11.8 µM. It also gave a TGI (SF-539 CNS) of 24.4 µM, a GI50 (SN12C renal) of 14.4 µM and a TGI (SN12C renal) of 28.9 µM. It also gave a GI50 (SNB-75 CNS) of 15.2 µM, a TGI (SNB-75 CNS) of 28.8 µM and a GI50 (HS 578T breast) of 17.7 µM. The TGI (HS 578T breast) was 45.7 µM, the GI50 (786-0 renal) was 15.9 µM and the TGI (786-0 renal) was 29.7 µM. The GI50 (M14 melanoma) was 10.2 µM, the TGI (M14 melanoma) was 22.7 µM and the GI50 (DU-145 prostate) was 16.7 µM. The TGI (DU-145 prostate) was 30.4 µM, the GI50 (SW-620 colon) was 13.5 µM and the TGI (SW-620 colon) was 30.4 µM. For the same compound, the GI50 (UACC-257 melanoma) was 14.4 µM, the TGI (UACC-257 melanoma) was 27.9 µM and the GI50 (SF-295 CNS) was 16.2 µM. It also gave a TGI (SF-295 CNS) of 30 µM, a GI50 (MOLT-4 leukemia) of 14.9 µM and a TGI (MOLT-4 leukemia) of 49.6 µM. For the same compound, the GI50 (LOX IMVI melanoma) was 1.64 µM, the TGI (LOX IMVI melanoma) was 3.18 µM and the GI50 (U251 CNS) was 15.9 µM. For the same compound, the TGI (U251 CNS) was 29.9 µM, the GI50 (A549 NSCLC) was 16.4 µM and the TGI (A549 NSCLC) was 31.5 µM. For the same compound, the GI50 (SF-268 CNS) was 17.4 µM, the TGI (SF-268 CNS) was 33.7 µM and the GI50 (NCI-H522 lung) was 17.2 µM. For the same compound, the TGI (NCI-H522 lung) was 33.8 µM, the GI50 (CCRF-CEM leukemia) was 14.4 µM and the TGI (CCRF-CEM leukemia) was 91.9 µM. The GI50 (HOP-62 NSCLC) was 15.7 µM, the TGI (HOP-62 NSCLC) was 30.5 µM and the GI50 (HCT-15 colon) was 13.6 µM. For the same compound, the TGI (HCT-15 colon) was 29.7 µM, the GI50 (HOP-92 NSCLC) was 4.5 µM and the TGI (HOP-92 NSCLC) was 21 µM. For the same compound, the GI50 (NCI-H460 lung) was 17.4 µM, the TGI (NCI-H460 lung) was 33 µM and the GI50 (UO-31 renal) was 11.7 µM. For the same compound, the TGI (UO-31 renal) was 24 µM, the GI50 (SR leukemia) was 2.9 µM and the TGI (SR leukemia) was 47.8 µM.
